Experiments:
Format in all cases: in vivo
indian jointvetch [1] = test: Herbicidal activity test against upland field weeds (soil treatment test); set-up: key to Soil treatment herbicidal activity, Indian jointvetch: 0 (no control); 100 (complete control); settings: scale 0 (no control) to 100 (complete control)
How it was run: (§1)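 Pre-emergence test: seeds or rootstocks were sown in fertilized sandy loam, and the next day the soil surface was sprayed with compound at 50 or 75 g a.i./ha in 50% acetone/0.1% Tween-20. Plants were grown in a greenhouse (30±5 °C, 14/10 h light/dark), then visually scored 0–100 against untreated at 14 d (21 d if needed).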

velvetleaf [2] = test: Herbicidal activity test against upland field weeds (foliar treatment test); set-up: key to Foliar treatment herbicidal activity, velvet leaf: 0 (no control); 100 (complete control)
How it was run: (§2)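 Weeds were raised from seed or rootstocks in horticultural soil in a greenhouse (30±5° C., 14/10 h light/dark), then foliage was hand-sprayed with compound at 50 or 75 g a.i./ha in 50% acetone with 0.1% Tween-20. Control was scored visually 0–100 against untreated plants after 14 days, or 21 if needed.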

quack grass [3] = test: as above; set-up: key to Foliar treatment herbicidal activity, quack grass: 0 (no control); 100 (complete control); settings: scale 0-100
How it was run: as §2

crabgrass [4] = test: as above; settings: Digitaria sanguinalis, scale 0-100; for pest or weed control at 50 g/ha: 50 g ai/ha
How it was run: as §2

bindweed [5] = test: as above; settings: scale 0-100; for pest or weed control at 50 g/ha: 50 g ai/ha
How it was run: as §2

cocklebur [6] = test: Herbicidal activity test against upland field weeds (soil treatment test); set-up: key to Soil treatment herbicidal activity, Cocklebur: 0 (no control); 100 (complete control); settings: scale 0 (no control) to 100 (complete control); for Soil treatment herbicidal activity, Cocklebur: 50 g ai/ha
Method: (§3) Experimental Example 2: Herbicidal Activity Test Against Upland Field Weeds (Soil Treatment Test) Soil treatment was performed as follows: After filling a square plastic pot having a surface area of 350 cm^2 with sandy loam mixed with 1 g per pot (350 cm^2) of horticultural mixed fertilizer (N:P:K=11:10:11), seeds (10˜15 grains) or rootstocks (2 pieces) of 5 kinds of grassy weeds of sorghum, barnyard grass, quack grass, crabgrass, fall panicum, and 5 kinds of broadleaf weeds of black nightshade, indian jointvetch, velvetleaf, cocklebur, bindweed, which had been stored in a low temperature (6° C.), were sown. The day after sowing, test compound solutions were made by diluting with a preparation solution (including 50% acetone, 0.1% Tween-20) so that the final treatment amount of the test compounds was 50 or 75 g a.i./ha. The prepared test compound solution was used for treating soil surface by hand-spraying 14 mL per pot in a fume hood. After the treatment, it was managed under the same greenhouse conditions (average temperature 30±5° C., light/dark=14/10 hours), and after 14 days (after 21 days if necessary), the external symptoms and efficacy were investigated according to the scale of 0 (no control) to 100 (complete control). The results of Table 8 were obtained by evaluating weed control value to the untreated control by conducting visual assessment.

bindweed [7] = test: as above; settings: scale 0 (no control) to 100 (complete control)
Method: as §3

sorghum [8] = test: as above; set-up: key to Soil treatment herbicidal activity, Sorghum: 0 (no control); 100 (complete control); settings: scale 0 (no control) to 100 (complete control); for plant injury at 50 g/ha / Soil treatment herbicidal activity, Sorghum: 50 g ai/ha
How it was run: as §1

black nightshade [9] = test: Herbicidal activity test against upland field weeds (foliar treatment test); set-up: key to Foliar treatment herbicidal activity, black nightshade: 0 (no control); 100 (complete control); settings: scale 0-100; for pest or weed control at 50 g/ha: Solanum nigrum, 50 g ai/ha
How it was run: as §2

fall panicum [10] = test: Herbicidal activity test against upland field weeds (soil treatment test); set-up: key to Soil treatment herbicidal activity, Fall panicum: 0 (no control); 100 (complete control); settings: scale 0 (no control) to 100 (complete control); for pest or weed control at 50 g/ha: Panicum dichotomiflorum
How it was run: as §1

fall panicum [11] = test: Herbicidal activity test against upland field weeds (foliar treatment test); settings: Panicum dichotomiflorum, scale 0-100; for pest or weed control at 50 g/ha: 50 g ai/ha
How it was run: as §2

cocklebur [12] = test: as above; set-up: key to Foliar treatment herbicidal activity, Cocklebur: 0 (no control); 100 (complete control); settings: scale 0-100
How it was run: as §2

sorghum [13] = test: as above; settings: Sorghum, scale 0-100; for plant injury at 50 g/ha: 50 g ai/ha
How it was run: as §2

black nightshade [14] = test: Herbicidal activity test against upland field weeds (soil treatment test); set-up: key to Soil treatment herbicidal activity, black nightshade: 0 (no control); 100 (complete control); settings: scale 0 (no control) to 100 (complete control); for pest or weed control at 50 g/ha: Solanum nigrum
How it was run: as §1

barnyard grass [15] = test: as above; set-up: key to Soil treatment herbicidal activity, barnyard grass: 0 (no control); 100 (complete control); settings: scale 0 (no control) to 100 (complete control)
How it was run: as §1

quack grass [16] = test: as above; set-up: key to Soil treatment herbicidal activity, quack grass: 0 (no control); 100 (complete control); settings: scale 0 (no control) to 100 (complete control)
How it was run: as §1

barnyard grass [17] = test: Herbicidal activity test against upland field weeds (foliar treatment test); settings: Echinochloa crus-galli, scale 0-100; for pest or weed control at 50 g/ha: 50 g ai/ha
How it was run: as §2

indian jointvetch [18] = test: as above; settings: scale 0-100; for pest or weed control at 50 g/ha: 50 g ai/ha
How it was run: as §2

velvetleaf [19] = test: Herbicidal activity test against upland field weeds (soil treatment test); set-up: key to Soil treatment herbicidal activity, velvet leaf: 0 (no control); 100 (complete control); settings: scale 0 (no control) to 100 (complete control)
How it was run: as §1

crabgrass [20] = test: as above; set-up: key to Soil treatment herbicidal activity, Crabgrass: 0 (no control); 100 (complete control); settings: 50 g ai/ha, scale 0 (no control) to 100 (complete control)
How it was run: as §1

[21] = Xanthium strumarium, 75 g ai/ha
[22] = Abutilon theophrasti, 50 g ai/ha, scale 0-100, read-out: Foliar treatment herbicidal activity, velvet leaf
[23] = Xanthium strumarium, 50 g ai/ha

SMILES	Soil treatment herbicidal activity, Indian jointvetch (indian jointvetch [1]; 50 g ai/ha)	pest or weed control at 50 g/ha (velvetleaf [2]; [22]) [%]	Foliar treatment herbicidal activity, quack grass (quack grass [3]; 50 g ai/ha)	pest or weed control at 50 g/ha (crabgrass [4]) [%]	pest or weed control at 50 g/ha (bindweed [5]) [%]	Soil treatment herbicidal activity, Cocklebur (cocklebur [6])	plant injury at 50 g/ha (sorghum [8]; Sorghum) [%]	pest or weed control at 50 g/ha (black nightshade [9]) [%]	pest or weed control at 50 g/ha (fall panicum [10]; 50 g ai/ha) [%]	pest or weed control at 50 g/ha (fall panicum [11]) [%]	pest or weed control at 50 g/ha (cocklebur [12]; [23]) [%]	plant injury at 50 g/ha (sorghum [13]) [%]	Soil treatment herbicidal activity, barnyard grass (barnyard grass [15]; 50 g ai/ha)	Soil treatment herbicidal activity, quack grass (quack grass [16]; 50 g ai/ha)	pest or weed control at 50 g/ha (barnyard grass [17]) [%]	pest or weed control at 50 g/ha (indian jointvetch [18]) [%]	Soil treatment herbicidal activity, velvet leaf (velvetleaf [19]; 50 g ai/ha)	Soil treatment herbicidal activity, Crabgrass (crabgrass [20])	pest or weed control at 50 g/ha (indian jointvetch [1]; 50 g ai/ha) [%]	Soil treatment herbicidal activity, Sorghum (sorghum [8])	further results
CN(Cc1ncn(C)n1)c1nc(C(F)(F)F)ccc1C(=O)Nc1nnnn1C [Compound No. 2-35, 2-(methyl((1-methyl-1H-1,2,4-triazol-3-yl)methyl)amino)-N-(1-methyl-1H-tetrazol-5-yl)-6-(trifluoromethyl)nicotinamide]	–	–	–	–	–	–	–	–	–	–	–	–	–	–	–	–	–	–	–	–	Soil treatment herbicidal activity, Indian jointvetch (indian jointvetch [1]; 75 g ai/ha): 100; pest or weed control at 75 g/ha (velvetleaf [2]; Abutilon theophrasti, 75 g ai/ha, scale 0-100, read-out: Foliar treatment herbicidal activity, velvet leaf): 90%; Foliar treatment herbicidal activity, quack grass (quack grass [3]; 75 g ai/ha): 0; pest or weed control at 75 g/ha (crabgrass [4]; 75 g ai/ha): 70%; pest or weed control at 75 g/ha (bindweed [5]; 75 g ai/ha): 70%; pest or weed control at 75 g/ha (cocklebur [6]; [21]): 95%; pest or weed control at 75 g/ha (bindweed [7]; 75 g ai/ha): 70%; plant injury at 75 g/ha (sorghum [8]; Sorghum, 75 g ai/ha): 90%; Foliar treatment herbicidal activity, black nightshade (black nightshade [9]; 75 g ai/ha): 100; Soil treatment herbicidal activity, Fall panicum (fall panicum [10]; 75 g ai/ha): 100; pest or weed control at 75 g/ha (fall panicum [11]; 75 g ai/ha): 80%; pest or weed control at 75 g/ha (cocklebur [12]; [21]): 90%; plant injury at 75 g/ha (sorghum [13]; 75 g ai/ha): 70%; Soil treatment herbicidal activity, black nightshade (black nightshade [14]; 75 g ai/ha): 100; Soil treatment herbicidal activity, barnyard grass (barnyard grass [15]; 75 g ai/ha): 100; Soil treatment herbicidal activity, quack grass (quack grass [16]; 75 g ai/ha): 0; pest or weed control at 75 g/ha (barnyard grass [17]; 75 g ai/ha): 80%; pest or weed control at 75 g/ha (indian jointvetch [18]; 75 g ai/ha): 80%; Soil treatment herbicidal activity, velvet leaf (velvetleaf [19]; 75 g ai/ha): 100
CON(Cc1nnn(C)n1)Cc1nc(C(F)(F)Cl)ccc1C(=O)Nc1nnnn1C [Compound No. 2-79, 6-(chlorodifluoromethyl)-2-((methoxy((2-methyl-2H-tetrazol-5-yl)methyl)amino)methyl)-N-(1-methyl-1H-tetrazol-5-yl)nicotinamide]	100	80	0	70	40	0	30	98	98	50	60	20	100	0	80	70	100	–	–	–	pest or weed control at 50 g/ha (crabgrass [20]; Digitaria sanguinalis): 95%; Soil treatment herbicidal activity, black nightshade (black nightshade [14]; 50 g ai/ha): 100
CC(=O)N(C(=O)c1ccc(C(F)(F)F)nc1COCc1nnn(C)n1)c1nnnn1C [Compound No. 2-67, N-acetyl-N-(1-methyl-1H-tetrazol-5-yl)-2-(((2-methyl-2H-tetrazol-5-yl)methoxy)methyl)-6-(trifluoromethyl)nicotinamide]	100	80	0	70	40	100	50	95	90	60	95	40	100	0	70	80	100	100	–	–	pest or weed control at 50 g/ha (bindweed [7]; 50 g ai/ha): 70%
Cn1cnc(COCc2nc(C(F)(F)Cl)ccc2C(=O)Nc2nnnn2C)n1 [Compound No. 2-80, 6-(chlorodifluoromethyl)-2-(((1-methyl-1H-1,2,4-triazol-3-yl)methoxy)methyl)-N-(1-methyl-1H-tetrazol-5-yl)nicotinamide]	–	98	0	40	40	0	–	98	–	60	40	20	0	0	80	70	–	0	40	0	Soil treatment herbicidal activity, Fall panicum (fall panicum [10]; 50 g ai/ha): 0; pest or weed control at 50 g/ha (black nightshade [14]; 50 g ai/ha): 98%; pest or weed control at 50 g/ha (velvetleaf [19]; Abutilon theophrasti, 50 g ai/ha, read-out: Soil treatment herbicidal activity, velvet leaf): 98%
CON(Cc1nc(C(F)(F)F)ccc1C(=O)Nc1nnnn1C)Cc1ncnn1C [Compound No. 1-91, 2-((methoxy((1-methyl-1H-1,2,4-triazol-5-yl)methyl)amino)methyl)-N-(1-methyl-1H-tetrazol-5-yl)-6-(trifluoromethyl)nicotinamide]	–	–	0	98	80	0	–	98	–	90	–	50	0	0	98	90	100	0	98	0	Foliar treatment herbicidal activity, velvet leaf (velvetleaf [2]; 50 g ai/ha, scale 0-100): 100; Soil treatment herbicidal activity, Fall panicum (fall panicum [10]; 50 g ai/ha): 0; Foliar treatment herbicidal activity, Cocklebur (cocklebur [12]; 50 g ai/ha): 100; pest or weed control at 50 g/ha (black nightshade [14]; 50 g ai/ha): 98%
